# Literature values as cited in patent US9050341B2, “Methods of treating drug resistant and other tumors by administering 6,7-dialkoxy quinazoline derivatives” (NATCO PHARMA LIMITED, priority 2009, dated 2015).
# Counter-ions that a name gives are not always drawn.
# Details: beagle dogs; source not stated; cited from earlier work
smiles,measurement,value
"C#Cc1cccc(Nc2ncnc3cc(OCCOC)c(OCCOC)cc23)c1 [Erlotinib HCl, N-(3-Ethylnylphenyl)-6,7-bis(2-methoxyethoxy)-4-quinazolinamine]","no observed adverse effect level (NOAEL), corresponding value",5 mg/kg b.wt/day
